Laboratory results published in patent publication US8101550B2, “Anthranilic acid diamide derivative with hetero-aromatic and hetero-cyclic substituents” (Bayer Cropscience AG, priority 2006, dated 2012).

What was measured:
[1] = log P determination by HPLC on reverse-phase column (EEC Directive 79/831 Annex V.A8); assay type: physicochemical; details: HPLC on reverse-phase column
In short: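 Reverse-phase C18 HPLC at 43 °C, following EEC Directive 79/831 Annex V.A8. Acidic LC-MS used pH 2.7 eluents (0.1% aqueous formic acid and acetonitrile with 0.1% formic acid) on a 10–95% acetonitrile linear gradient. Log P was interpolated linearly from retention times against unbranched C3–C16 alkan-2-ones of known log P.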

Heliothis virescens eggs = experiment: Heliothis virescens test; assay type: in vivo; details: 300 ppm; eggs treated
Protocol: (§1) An appropriate preparation of active compound is prepared by mixing the active compound with the stated amounts of solvent and diluting the concentrate with […] water to the desired concentration.
The Heliothis virescens eggs are treated with a preparation of active compound at the desired concentration.
(§2) After the desired time the effect in % is determined. 100% means that all of the eggs/larvae have been killed; 0% means that no eggs/larvae have been killed.

Myzus persicae = Myzus persicae test; assay type: in vivo; details: 30 ppm; preparation provided for consumption
Protocol: as §1
The Myzus persicae is provided with a preparation of active compound at the desired concentration for consumption.
After the desired time the effect in % is determined. 100% means that all of the aphids have been killed; 0% means that no aphids have been killed.

Aedes aegypti larvae = experiment: Aedes aegypti test; assay type: in vivo; details: 30 ppm; larvae treated
Protocol: as §1
The Aedes aegypti larvae are treated with a preparation of active compound at the desired concentration.
After the desired time the effect in % is determined. 100% means that all of the Aedes aegypti have been killed; 0% means that no Aedes aegypti have been killed.

[2] = system: Diabrotica undecimpunctata eggs; experiment: Diabrotica undecimpunctata test; assay type: in vivo; details: 300 ppm; eggs treated
Protocol: as §1
The Diabrotica undecimpunctata eggs are treated with a preparation of active compound at the desired concentration.
as §2

[3] = system: caterpillars of the armyworm (Spodoptera frugiperda); experiment: Spodoptera frugiperda test (cabbage leaves, immersion); assay type: in vivo; details: cabbage leaves immersed
Protocol: (§3) An appropriate preparation of active compound is prepared by mixing 1 part by weight of active compound with the stated amounts of solvent and emulsifier and diluting the concentrate with emulsifier-containing water to the desired concentration.
Cabbage leaves (Brassica oleracea) are treated by immersion into a preparation of active compound at the desired concentration and, are populated with caterpillars of the armyworm (Spodoptera frugiperda) while the leaves are still wet.
After the desired time the effect in % is determined. 100% means that all of the caterpillars have been killed; 0% means that no caterpillars have been killed.
Cabbage leaves (Brassica oleracea) are treated by immersion into a preparation of active compound at the desired concentration and are populated with caterpillars of the armyworm (Spodoptera frugiperda) while the leaves are still wet.

[4] = system: larvae of the leafminer fly (Liriomyza trifolii); experiment: Liriomyza trifolii test; assay type: in vivo; details: 500 ppm; infested bean leaf discs sprayed
Protocol: as §3
Bean leaf discs (Phaseolus vulgaris) infested by larvae of the leafminer fly (Liriomyza trifolii) are sprayed with a preparation of active compound at the desired concentration.
After the desired time the effect in % is determined. 100% means that all of the leafminer flies have been killed; 0% means that no leafminer flies have been killed.

In the case of `Cc1cc(Cl)cc(C(=O)NC(C)C)c1NC(=O)c1cc(Cn2cc(Cl)c(C(F)(F)F)n2)nn1-c1ncccc1Cl` [I-1-15], the logP [1] is reported as 3.85, the “Kill level after 6-7 d in %” value (Heliothis virescens eggs) is reported as 100% and the “Kill level after 6-7 d in %” value (Myzus persicae) is reported as 100%. For the same compound, the “Kill level after 2-4 d in %” value (Aedes aegypti larvae) was 100%, the “Kill level after 2-5 d in %” value [2] was 100% and the “Kill level after 7 d in %” value ([3]; 100 g/ha) was 100%.

For `Cc1cc(Br)cc(C(=O)NC(C)C)c1NC(=O)c1cc(Cn2nc(C(F)(F)F)nc2C(F)(F)F)nn1-c1ncccc1Cl` [I-1-22], the logP [1] was 3.91, the “Kill level after 7 d in %” value [4] was 98% and the “Kill level after 7 d in %” value ([3]; 4 g/ha) was 100%. For the same compound, the “Kill level after 7 d in %” value ([3]; 100 g/ha) was 100%.

With `Cc1cc(Cl)cc(C(=O)NC(C)C)c1NC(=O)c1cc(Cn2cc(I)c(C(F)(F)C(F)(F)F)n2)nn1-c1ncccc1Cl` [I-1-14] the logP [1] was 4.29, the “Kill level after 6-7 d in %” value (Heliothis virescens eggs) was 100% and the “Kill level after 6-7 d in %” value (Myzus persicae) was 100%. For the same compound, the “Kill level after 2-4 d in %” value (Aedes aegypti larvae) was 100%, the “Kill level after 2-5 d in %” value [2] was 100% and the “Kill level after 7 d in %” value ([3]; 100 g/ha) was 100%.

For `Cc1cc(Br)cc(C(=O)NC(C)C)c1NC(=O)c1cc(Cn2cc(C(F)(F)C(F)(F)F)c(C(F)(F)C(F)(F)F)n2)nn1-c1ncccc1Cl` [I-1-13], the logP [1] was 4.98, the “Kill level after 6-7 d in %” value (Heliothis virescens eggs) was 100% and the “Kill level after 6-7 d in %” value (Myzus persicae) was 100%. The “Kill level after 2-4 d in %” value (Aedes aegypti larvae) was 100%, the “Kill level after 2-5 d in %” value [2] was 100% and the “Kill level after 7 d in %” value ([3]; 100 g/ha) was 100%.

With `CNC(=O)c1cc(Cl)cc(C)c1NC(=O)c1cc(Cn2cc(Cl)cn2)nn1-c1ncccc1Cl` [I-1-4] the logP [1] was 2.54, the “Kill level after 7 d in %” value [4] was 95% and the “Kill level after 7 d in %” value ([3]; 100 g/ha) was 100%.

With `Cc1cc(Br)cc(C(=O)NCC#N)c1NC(=O)c1cc(Cn2cc(C(F)(F)C(F)(F)F)c(C(F)(F)C(F)(F)F)n2)nn1-c1ncccc1Cl` [I-1-33] the logP [1] was 4.28 and the “Kill level after 7 d in %” value ([3]; 100 g/ha) was 100%.

In the case of `Cc1cc(Br)cc(C(=O)NC(C)C)c1NC(=O)c1cc(Cn2nc(C(F)(F)C(F)(F)F)nc2C(F)(F)C(F)(F)F)nn1-c1ncccc1Cl` [I-1-37], the logP [1] is reported as 4.73 and the “Kill level after 7 d in %” value ([3]; 100 g/ha) is reported as 100%.

With `Cc1cc(Cl)cc(C(=O)NC(C)C)c1NC(=O)c1cc(Cn2nc(C(F)(F)C(F)(F)F)nc2C(F)(F)F)nn1-c1ncccc1Cl` [I-1-23] the logP [1] was 4.25 and the “Kill level after 7 d in %” value ([3]; 100 g/ha) was 100%.

In the case of `Cc1cc(Cl)cc(C(=O)NC(C)C)c1NC(=O)c1cc(Cn2ccc(C(F)(F)F)n2)nn1-c1ncccc1Cl` [I-1-6], the logP [1] is reported as 3.27, the “Kill level after 7 d in %” value ([3]; 0.8 g/ha) is reported as 100% and the “Kill level after 7 d in %” value ([3]; 100 g/ha) is reported as 100%.

In the case of `CNC(=O)c1cc(Cl)cc(C)c1NC(=O)c1cc(Cn2cc(C(F)(F)C(F)(F)F)c(C(F)(F)C(F)(F)F)n2)nn1-c1ncccc1Cl` [I-1-3], the logP [1] is reported as 4.39, the “Kill level after 7 d in %” value [4] is reported as 98% and the “Kill level after 7 d in %” value ([3]; 0.8 g/ha) is reported as 100%. For the same compound, the “Kill level after 7 d in %” value ([3]; 100 g/ha) was 100%.

In the case of `CNC(=O)c1cc(Cl)cc(C)c1NC(=O)c1cc(Cn2cc(Cl)c(C(F)(F)C(F)(F)F)n2)nn1-c1ncccc1Cl` [I-1-30], the logP [1] is reported as 3.77 and the “Kill level after 7 d in %” value ([3]; 100 g/ha) is reported as 100%.
